Measurements from publication PMC6102577, “Discovery of Pyrazolo[4,3-c]quinolines Derivatives as Potential Anti-Inflammatory Agents through Inhibiting of NO Production” (Molecules : A Journal of Synthetic Chemistry and Natural …, 2018).
Where two headings read alike, the source gives them in different places.

Key:
COX-2 protein expression = assay: LPS-inducible COX-2 protein expression in RAW 264.7 cells (western blot); type: cell-based, murine; conditions: pretreated 2 h, LPS 0.1 μg/mL 24 h
Procedure: (§1) The effects of compounds 2i and 2m on iNOS and COX-2 protein expression in LPS stimulated Raw 264.7 cell were assessed by western blot. Briefly, Raw 264.7 cells were pretreated with tested compound for 2 h before stimulation in the presence or absence of LPS (0.1 μg/mL). Cells were harvested and lysed with RIPA lysis buffer (50 mM Tris–Cl, pH 8.0, 150 mM NaCl, 0.1% SDS, 0.5% NP-40, 1% sodiumdeoxycholate, 1 mM phenylmethyl-sulfonylfluoride, 1 mM EDTA, no added proteinase) at 24 h after treatment. The total protein concentration in the cell lysates was measured according to the method described by Bradford. Equal amounts (15 μg) of protein were loaded and separated by using 8% SDS–PAGE and analyzed by western blot (ECL Amersham, Bensheim, Germany). The relative expression of proteins was quantified densitometrically using the software LabWorks 4.5 and was normalized againstβ-actin.
(§2) Figure 4 Inhibition of COX-2 expression by compound 2i and 2m in LPS-stimulated RAW 264.7 cells. Cells (5 × 10^5 cells/well) were pretreated with the indicated concentrations of tested compounds for 2 h before incubation with 0.1 μg/mL LPS for 24 h. Cell lysates were then prepared and western blots were performed using an antibody specific for murine COX-2.

iNOS protein expression = assay: LPS-induced iNOS protein expression in RAW 264.7 cells (western blot); type: cell-based, murine; conditions: pretreated 2 h, LPS 0.1 μg/mL 24 h
Procedure: as §1
as §2, with “Figure 2” for “Figure 4”, “of iNOS” for “of COX-2”, “by” for “by compound”, “murine iNOS.” for “murine COX-2.”

[1] = tested on: LPS-stimulated NO production in RAW 264.7 cells; assay: Inhibition of LPS-induced NO production (nitrite accumulation, Griess reaction) in RAW 264.7 cells; type: cell-based; conditions: Mus musculus
Procedure: Treatment of Raw 264.7 cells with LPS (0.1 μg/mL) for 24 h induced NO production which were assessed by measuring the accumulation of nitrite, a stable metabolite of NO, in the media based on Griess reaction. […] However, compound 2a was also highly cytotoxic, in which the survival rate of RAW 264.7 cells was only 9% at a drug concentration of 10 μM. […] The position of substitution play an important role in which substitution at para-position is usually more favorable than its ortho- or meta- counterpart in the inhibitory activity on the LPS-induced NO production. […] Various substituted groups have been introduced on the para-position of the phenyl ring.
Raw 264.7 cells, purchased from Bioresource Collection and Research Center, Taiwan, were cultured in DMEM, supplemented with 5% fetal bovine serum, 100 units/mL of penicillin, 100 μg/mL of streptomycin, 2 mM L-glutamine, and 1 mM non-essential amino acids in a 10-cm plate at a density of 1 × 10^6 cells/mL, at 37 °C in a humidified atmosphere containing 5% CO2.
Nitrite was measured by adding 100 μL of the Griess reagent (1% sulfanilamide and 0.1% N-(1-naphthyl)ethylenediamine dihydrochloride in 5% phosphoric acid) to 100 μL of medium for 5 min. The optical density at 550 nm (OD550) was measured with a microplate reader. Concentrations were calculated by comparison with the OD550 of a standard solution of sodium nitrite prepared in culture medium.

RAW 264.7 cells = assay: Cell viability (XTT method) of RAW 264.7 cells; type: cell-based; conditions: compound 10 μM, 24 h, means ± S.D.
Procedure: To evaluate whether the suppressive effect of compounds on NO production is related to cell viability, Raw 264.7 cells were treated with LPS for 24 h, and washed with 500 μL of phosphate buffer solution (PBS) before resuspended in 1 mL of culture medium. Cell viability tests were run in parallel with NO production assays with an initial cell density of 5 × 10^3 cells/well in the presence or absence of test compounds at 10 μM or 0.1% DMSO as control.

iNOS mRNA expression = assay: LPS-induced iNOS mRNA expression in RAW 264.7 cells (RT-PCR); type: cell-based; conditions: pretreated 2 h, LPS 0.1 μg/mL
Source text: Total RNA was extracted by Trizol-Reagent (Invirogen, Carlsbad, CA, USA) according to the manufacturer’s manual. One microgram of RNA was used for the reverse transcription of first strand cDNA using the oligo dT primers. Five microliters of cDNA were used for the amplification of iNOS and GAPDH (glyceraldehyde 3-phosphate dehydrogenase) mRNA expression. The primers for rat iNOS are as follows, forward: 5′-ACTGCGTCGCTTCATTAGGT-3′ and reverse: 5′-TAGGCAAGCGCTTTACCACT-3′. The primers for rat glyceraldehydes 3-phosphate dehydrogenase are as follows, forward: 5′-ATGGCACAGTCAAGGCTGAGA-3′ reverse: 5′-AGACGCCAGTAGACTCCACGAC-3′. The amplicons were electrophoresed on a 3% agarose gel and band intensities were measured using a spectrophotometer (Thermo Fisher Scientific, Waltham, MA, USA) and normalized against GAPDH.
Figure 3 Inhibitory effects of compound 2i and 2m on LPS-induced iNOS mRNA expression. Cells (5 × 10^5 cells/well) were pretreated with the indicated concentrations of tested compounds for 2 h before incubation with 0.1 μg/mL LPS for 9 h. Total RNA was prepared for RT-PCR analysis of iNOS mRNA expression in LPS-stimulated RAW 264.7 cells. GAPDH were used as internal controls for the RT-PCR assays3.4. Inhibition of LPS-inducible COX-2 expression.

[2] = NO-scavenging activity (sodium nitroprusside, nitrite by Griess reaction); conditions: SNP 2.5 mM, compound 10 μM, light, room temperature, 60 min
Procedure: NO-scavenging effects of pyrazolo[4,3-c]quinolines 2i and 2m were measured according to the reported method. Sodium nitroprusside (SNP) (2.5 mM) was incubated alone or in combination with tested compound (10 μM) or 1400W(10 μM) in light at room temperature for 60 min.
To understand the inhibitory effects of compounds 2i and 2m on NO production, sodium nitroprusside (SNP) was freshly prepared at […] in PBS was incubated alone or in combination with 10 µM of the different compounds. SNP is an inorganic complex where NO is found as NO^+ and light irradiation is necessary for the release of NO. Therefore, incubation mixtures were incubated in light at room temperature, and nitrite levels were determined after 60 min by Griess reaction.
Figure 1 NO-scavenging effects of 1400W, compounds 2i and 2m. SNP solution (2.5 mM) in PBS was incubated alone or with tested compound (10 μM) or 1400W (10 μM) in the presence of light at room temperature for 60 min.

IC50 ([1]; RAW264.7, 24 h, RAW 264.7 cells, LPS 0.1 μg/mL 24 h, means ± S.D., read-out: IC50 (inhibition of LPS-induced NO production)): 190 ± 50 nM
IC50 ([1]; RAW264.7, training dataset, negative logarithm of IC50 values, read-out: Observed pIC50 (converted)): 190 nM
SMILES: Nc1n[nH]c2c1c(Nc1ccc(O)cc1)nc1ccccc12 [Compound 2i, 3-amino-4-(4-hydroxyphenylamino)-1H-pyrazolo[4,3-c]-quinoline]
Inhibition of LPS-induced COX-2 protein expression (COX-2 protein expression): effectively suppressed the induction of COX-2 protein expression by LPS
Inhibition of LPS-induced iNOS protein expression (iNOS protein expression): more potent inhibitory activities than 2m
inhibition at 10 µM ([1]; RAW264.7, RAW 264.7 cells, LPS 0.1 μg/mL 24 h, compound 10 μM, means ± S.D., read-out: Percent Inhibition of NO Production at 10 μM): 102 ± 2.63%
Cell Survival Rate at 10 μM (RAW 264.7 cells): 87.84 ± 0.15%
Inhibition of LPS-stimulated iNOS mRNA expression (iNOS mRNA expression): inhibited the LPS-stimulated iNOS mRNA production in a dose-dependent manner
NO-scavenging effect (levels of nitrite from SNP) [2]: did not affect the levels of nitrite
